Test results published in patent US20250255847A1, “[…]s: Novel Drugs for Triple Negative Breast Cancer” (SIMMARON RSEARCH INC, priority 2024, published 2025).

Legend:
[1] = system: human mammary epithelial cells (HMECs); test: LDH assay in healthy human mammary epithelial cells; type: cell-based; settings: 1, 2, 5, 10 and higher nM doses, 48 hrs
Procedure: FIG. 11 illustrates an embodiment of the present invention and illustrates SIM-1 and SIM-2 induced apoptosis in MDA-MB-468 TNBC cells, but not HMEC control cells. MDA-MB-468 cells were treated with increasing doses of (A) SIM-1 and (B) SIM-2 for 48 hrs followed by lactate dehydrogenase (LDH) release assay in the supernatants. The result was offset with cell-bound LDH and presented as a percent of DMSO control as discussed under method section. Half-maximal cytotoxicity or CT50 analyses were performed plotting maximum response as an index of increasing doses of (C) SIM-1 and (D) SIM-2. AnnexinV (green) and propidium iodide (red) dual-labeling were performed to evaluate apoptotic response in MDA-MB-468 cells once treated with increasing doses of (E) SIM-1 and (F) SIM-2 for 24 hrs. Nuclei were stained with DAPI. TUNEL assay was performed in MDA-MB-468 cells after treatment with 25 nM of (G) SIM-1. Brown-colored TUNEL bodies were visualized at cresyl violet-stained blue nuclei. (H) The number of TUNEL bodies were counted as a percent of 100 cresyl violet-stained blue cells. Ten independent images were counted for the quantification study. Similarly, SIM-2 was assessed for (I) TUNEL and (J) subsequent quantification analyses. […]
LDH Assay. […] Each dose was measured in triplicates. […] The plate was read at 490 nm (background at 680 nm). […]

[2] = system: transcriptional activity of STAT3; test: STAT3-responsive eGFP reporter assay in MDA-MB-468 cells; type: cell-based, human; settings: for EGF-induced GFP reporter activity: EGF 20 ng/mL, different doses; for IC50: Homo sapiens, MDA-MB-468, read-out: IC50 of STAT3 activation (eGFP reporter); for lowest concentration inhibiting STAT3 activation (eGFP reporter): as low as
Procedure: FIG. 10 illustrates an embodiment of the present invention and illustrates SIM-1 and SIM-2 inhibit expressions of IL6, RANTES, and other STAT3-dependent tumor promoting genes and proteins. (A) A gene array of STAT3 dependent 66 genes (listed in Table 1) was performed in mRNA samples of MDA-MB-468 cells. Realtime PCR plate coated with 66 primer sets of STAT3-dependent genes was run for four conditions including control, EGF (25 ng/mL), EGF+SIM-1 (10 nM) and EGF+SIM-2 (10 nM). The resultant Ct value was normalized with four different housekeeping genes, and then summarized with a heatmap analyses drawn in Morpheus server of Broad Institute. […] (C) The cloning of STAT3 response element of IL6 promoter upstream of GFP reporter was performed by GeneCopoea genome editing service (Rockville, MD). The bit score map and sequence of consensus STAT3 response element or SEQ ID NO: 2 was shown below. EGFP reporter assay was performed in EGF-induced (20 ng/mL) MDA-MB-468 after treatments of increasing doses of (D) SIM-1 and (E) SIM-2 for 5 hrs. Briefly, MDA-MB-468 cells were transfected with the plasmid for 24 hrs using Lipofectamine transfection strategy followed by the treatment with EGF (20 ng/mL) alone and together with increasing doses SIM-1 and SIM-2 for additional 5 hrs. After that live cells were recorded at Ex:Em=485/535 nm wavelength for GFP activity. (F) The scrambled STAT3 response element in IL6 promoter or SEQ ID NO: 3 was also synthesized partnering with GeneCopoea. One-way ANOVA (treatment as effector) was adopted to test the significance between groups at **p<0.01, #p<0.005, and *p<0.05. (G) The GFP reporter activity was measured where the scrambled gene was cloned upstream of eGFP reporter. Results are mean±SD of three different experiments Ns=no significance. (H) Realtime PCR analyses of IL6 was performed in MDA-MB-468 cells maintained under control, EGF (25 ng/mL), EGF+SIM-1(20 nM), and EGF+SIM-2 (20 nM) conditions for 5 hrs. (I) ELISA analysis of IL6 was performed after 48 hrs in MDA-MB-468 cells kept under similar treatment conditions. (J) Realtime PCR (5 hrs post-treatment) and (K) ELISA analyses of RANTES (48 hrs post treatment) were performed under similar condition. Results are mean±SD of three different experiments. One-way ANOVA (treatment as effector) was adopted to test the significance between groups at ***p<0.001, **p<0.01, and *p<0.05.
GFP reporter assay. To assay the transcriptional activities of STAT3, cells at 75% confluence were transfected by 0.1 μg of pEZX-PF02 plasmid cloned with STAT3 response element of IL6 promoter upstream of eGFP reporter. The transfection was done by Lipofectamine 3000™ reagent as per the manufacturer's protocol (Thermofisher). […] GFP reporter activities were analyzed in PerkinElmer VictorX3 plate reader at Ex:Em=485/535 nm.
Once recruited to the DNA, STAT3 controls the gene transcription. Therefore finally, an eGFP reporter assay was performed to evaluate if SIM-1 and SIM-2 inhibited the transcriptional activity of STAT3. An eGFP reporter cassette was cloned under the guidance of IL6 promoter carrying STAT response element (FIG. 10C), transfected in MDA-MB-468 cells, and then treated by EGF (20 ng/mL) along with different doses of SIM-1 and SIM-2.

SMILES	cell death in HMEC cells (LDH) compared to DMSO control [1]	EGF-induced GFP reporter activity [2]	IC50 [2]	lowest concentration inhibiting STAT3 activation (eGFP reporter) [2]
CCOC(=O)c1c(NC(C)=O)sc2c(Cl)c(/C=N/O)ccc12 [SIM-2, ethyl 2-acetamido-7-chloro-6-(hydroxyiminomethyl)-1-benzothiophene-3-carboxylate]	unable to augment any significant cell death	dose-dependently inhibited	~20 nM	5 nM
O=C(O)CCC(=O)NCc1csc2ccc(Cl)cc12 [SIM-1, 4-[(5-chloro-1-benzothiophen-3-yl)methylamino]-4-oxobutanoic acid]	unable to augment any significant cell death	dose-dependently inhibited	~20 nM	5 nM
